In publication PMC5856125 (Journal of the American Chemical Society, 2018):

Molecular target: lipoteichoic acid synthase (LtaS) (Staphylococcus aureus, UniProt Q2G093)
Assay: LTA polymerization in proteoliposomes with purified LtaS, anti-LTA blot
Type: biochemical

Chain of lipoteichoic acid synthase (LtaS) (Q2G093 whole entry): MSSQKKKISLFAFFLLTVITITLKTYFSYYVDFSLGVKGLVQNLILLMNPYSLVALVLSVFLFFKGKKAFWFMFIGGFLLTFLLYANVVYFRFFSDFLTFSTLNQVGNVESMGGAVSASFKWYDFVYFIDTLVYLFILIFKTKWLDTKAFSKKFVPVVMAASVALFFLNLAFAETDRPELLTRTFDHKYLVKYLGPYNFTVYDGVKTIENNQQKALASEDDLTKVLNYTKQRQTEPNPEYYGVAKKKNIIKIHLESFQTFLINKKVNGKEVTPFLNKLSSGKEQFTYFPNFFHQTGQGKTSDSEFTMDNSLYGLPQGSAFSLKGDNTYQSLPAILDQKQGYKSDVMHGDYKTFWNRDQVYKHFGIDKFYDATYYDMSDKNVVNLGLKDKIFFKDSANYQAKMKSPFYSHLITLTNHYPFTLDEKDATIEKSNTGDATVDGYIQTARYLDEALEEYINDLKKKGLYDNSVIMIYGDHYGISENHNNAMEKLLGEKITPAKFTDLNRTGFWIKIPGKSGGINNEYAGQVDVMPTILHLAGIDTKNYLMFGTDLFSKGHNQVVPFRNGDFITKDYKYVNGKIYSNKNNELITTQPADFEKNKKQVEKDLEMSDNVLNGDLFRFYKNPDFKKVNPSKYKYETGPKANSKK

Nc1c(/N=N/c2ccc(-c3ccc(/N=N/c4cc(S(=O)(=O)O)c5ccccc5c4N)cc3)cc2)cc(S(=O)(=O)O)c2ccccc12 [compound 1, Congo red]
IC50: ~2000 nM
